Source: publication PMC3493468 (Chembiochem : a European journal of chemical biology, 2011)
Peptide text beside a SMILES is read from it. * marks the point of attachment. Palmitoyl = CCCCCCCCCCCCCCCC(=O)*

Columns and labels:
[1] = tested on: IGF-1 induced activity of AKT; test: IGF-1-induced AKT activation; format: cell-based; conditions: MCF-7 cells, compound 1 hour, then IGF-1 25 ng/ml for 20 min; Figure 5
SMO [2] = conditions: cited from earlier work
[3] = Biodistribution of 3H-labeled lipopeptide; format: in vivo, mice; conditions: subcutaneous, topical, peritoneal or oral administration; Supplementary Figure S6
SMO [4] = test: Inhibition of SMO function / Hedgehog pathway; format: cell-based

CCCCCCCCCCCCCCCC(=O)N[C@@H](CCCNC(=N)N)C(=O)N[C@@H](CC(N)=O)C(=O)N[C@@H](CC(N)=O)C(=O)N[C@@H](CO)C(=O)N[C@@H](CCCNC(=N)N)C(=O)N[C@@H](CC(C)C)C(=O)NCC(=O)N[C@@H](CC(N)=O)C(=O)NCC(=O)N[C@H](C(=O)N[C@@H](CC(C)C)C(=O)N[C@@H](Cc1ccc(O)cc1)C(N)=O)C(C)C [Peptide 16] (Palmitoyl-RNNSRLGNGVLY-NH2)
inhibition of IGF-1 induced activity of AKT [1]: inhibited IGF-1 induced activity of AKT in a dose-dependent manner

Ac-(ε-Pal)-KLTYAWHTSFKAL-NH2 [SMOi2-43]
in vitro activity as inhibitor of the Hedgehog pathway (SMO [2]): potent inhibitor

Ac-AKFSTHWAYTLK-(ε-Pal), all-D [SMOi2-17]
entry into circulation [3]: did not enter the circulation
in vitro activity as inhibitor of the Hedgehog pathway (SMO [2]): subnanomolar range

Ac-LTYAWHTSFKAL-NH2 [SMOi2-9]
inhibition of SMO function (SMO [4]): inactive
